{"source": "patent EP1101492A1", "about": "“NOVEL REMEDIES FOR ALLERGIC DISEASES” (FUJI YAKUHIN KOGYO KABUSHIKI KAISHA, priority 1998, dated 2000)", "key": {"[1]": {"tested_on": "allergic peritonitis", "assay": "Allergic peritonitis induced with ragweed pollen extract (peritoneal exudate cells)", "type": "in vivo, Balb/c mice", "conditions": "ragweed pollen extract challenge; 30 mg/kg i.p. 5 minutes prior to induction, 3, 6 and 12 hours post-induction; 24 hours after induction", "method": "Each efficacy on allergic peritonitis was examined according to methods as disclosed in Ouchi et al., \"Seibutsu Yakukagaku Jikken Koza, Ensho To Allergy (Inflammation and Allergy) I-3\", pp.139 to 151, Hirokawa Publishing Co., Japan and Spicer et al., The International Archives of Allergy and Applied Immunology, 81: 81 to 84, 1986.\nA ragweed (Ambrosia artemisiaefolia) pollen extract (1:100, Torii Pharmaceutical Co., Ltd.) was diluted 10-fold with physiological saline and administered subcutaneously to male Balb/c mice (7 weeks old, 20 to 23 g, purchased from JAPAN SLC, Inc.) on Days 0 and 1 at a single dose of 0.1 mL and further on Days 6, 8 and 14 at a single dose of 0.2 mL for sensitization. On Day 20 after the initial sensitization, an antigen solution for induction (a mixture of the aforementioned 10-fold diluted ragweed pollen extract, 50 units/mL of penicillin G potassium, and 0.05 mg/mL of streptomycin sulfate) was administered intraperitoneally to each animal at a dose of 0.2 mL to raise allergic peritonitis. […]\nTwenty four hours after induction, mice were sacrificed under ether […] and each penitoneal cavity was lavaged twice or thrice with a washout medium (total volume: 5 mL, physiological saline containing 10 units/mL of heparin). […] The retrieved washout medium was measured for its yield (mL) and the number of exudate cells therein by using Turk solution and counting on a haemocytometer and a total number of PEC was calculated. […] After staining, PEC was subjected to fractional counts under a microscope with classification into eosinophils, neutrophils, lymphocytes/macrophages and basophils based on their form and stain nature (more than 500 PEC per specimen were randomly counted). […] After counting, intraperitoneal exudation inhibition rates were calculated by the following formula and expressed as the therapeutic efficacies: Inhibition Rate (%) =[1 -((PEC in Sensitized/Drug-Treated Mouse) - (PEC in Unsensitized/Saline-Treated Mouse))/((PEC in Sensitized/Saline-Treated Mouse) - (PEC in Unsensitized/Saline-Treated Mouse))]× 100 [formula]"}, "[2]": {"tested_on": "guinea pig allergic rhinitis models", "assay": "Allergic rhinitis model: nasal airway resistance", "type": "in vivo, Guinea pigs", "conditions": "15 mg/kg s.c. one hour prior to rhinitis-induction; N=5; recorded 20 minutes after antigen-challenge", "method": "Guinea pigs (male, Std:Hartley, 3 weeks old) were housed and fed in a aluminum cage at a rate of up to 5 animals per cage. After acclimatization for 1 week, the guinea pigs were administered intravenously with an anti-ovalbumin antibody (Nihon Bioresearch Inc., Hajima Institute; antibody titer by a 3-hour homologous passive cutaneous anaphylaxis reaction, 1 : 8192) prepared according to the Orange & Moore method (Orange, R. P. and Moore, E. G., The Journal of Immunology 116: p.392-397, 1976) into their auricle vein at a dose of 0.3 mL/animal for passive sensitization. Twenty four to twenty six hours after sensitization under conditions of fast and free access to drinking water, the sensitized guinea pigs were anesthetized with urethane (1.2 g/kg, intraperitoneal administration), fixed in a supine position, and mediad excised cervically to expose tracheas. […] Variations of the ventilatory overflow were quantitatively recorded on a recticoder (RECTI-HORIZ-8K, Nippon Denki Sanei K.K.) for 20 minutes after antigen-challenge.\nWave height (cm) was measured on recorded papers and a nasal airway resistance value was calculated according to the following formula: Percent Increase (%) in Nasal Airway Resistance =((Observed Value) - (Value prior to Administration))/((Complete Obstruction)- (Value prior to Administration))× 100 [formula] […]"}, "[3]": {"tested_on": "mouse contact-type (type IV) dermatitis models", "assay": "Type IV allergic dermatitis (oxazolone-induced auricle edema)", "type": "in vivo, Balb/c mice", "conditions": "50 mg/mL in ethanol", "method": "Mice (male, Balb/c, 6 weeks old, 20 to 25 g) were sensitized by painting a 3% solution of oxazolone (100 µL) abdominally. Six days after sensitization, a 0.5% solution of oxazolone in acetone was painted on both sides of a right ear at a dose of 10 µL to raise auricle edema. An untreated group was painted with the solvent (acetone) alone onto both sides of a left ear of the same mouse at 10 µL. At 24 hours after edema-induction, each mouse was sacrificed with ether and an equivalent each of right and left auricles was stamped out with a puncher (diameter: 6 mm). Both left and right auricle sections were measure for their weight and each percent edema was calculated (Kazuo Ouchi (Ed.), \"Seibutsu Yakukagaku Jikken Koza, Ensho To Allergy (Inflammation and Allergy) I-1\", 1993, Hirokawa Publishing Co., Japan) Percent Edema (%) =((Right Auricular Segment Weight - Left Auricular Segment Weight))/(Left Auricular Segment Weight)× 100 [formula]\nThe solvent (ethanol) alone was painted on a left auricle at the same dose (treated group). Unsensitized mice were also treated for induction similarly and then treated with the compound of the present invention, only followed by examination for the potency of the compound of the present invention on auricles (unsensitized group). The number of animals used in the test was set 4 per group. […]"}}, "data": [{"compound": "CNC(=O)[C@H](Cc1ccc(NC(=N)N)cc1)NC(=O)[C@H](CC(C)C)C(CCCc1ccccc1)C(=O)NO", "note": "(single isomer, unassigned) [Compound No. 130, N-[4-(N-Hydroxyamino)-2(R)-isobutyl-3(R or S)-(3-phenyltrimethylene)succinyl)-L-4'-guanidophenylalanine-N-methylamide 1 acetate]", "values": [{"measurement": "decrease in total PEC number", "setting": "[1]", "result": 143.8, "unit": "%"}, {"measurement": "inhibition of infiltration of eosinophils into the peritoneal cavity", "setting": "[1]", "result": 57.2, "unit": "%"}, {"measurement": "inhibition of infiltration of lymphocytes/macrophages into the peritoneal cavity", "setting": "[1]", "result": 219.0, "unit": "%"}, {"measurement": "increase in nasal airway resistance due to antigen challenge (FIG. 15)", "setting": "[2]", "result": "markedly ameliorates an increase in nasal airway resistance"}, {"measurement": "development of auricle edemas (FIG. 13)", "setting": "[3]; 10 µL per side painted on right auricle 0.5 hr prior to and 6 hours after edema-induction, 24 hours after induction", "result": "amelioration of auricle edemas"}, {"measurement": "effect of the compound alone on auricles (FIG. 13)", "setting": "[3]; unsensitized mice, 10 µL per side painted twice", "result": "almost free of swelling and/or thinning"}]}]}
